# Reference: paper PMC6254361, “The properties of Msh2–Msh6 ATP binding mutants suggest a signal amplification mechanism in DNA mismatch repair” (The Journal of Biological Chemistry, 2018)
# Target: T1, Msh2–Msh6 (Saccharomyces cerevisiae, UniProt P25847+Q03834, Q03834:K988A)
# T1 sequence (P25847 1-964): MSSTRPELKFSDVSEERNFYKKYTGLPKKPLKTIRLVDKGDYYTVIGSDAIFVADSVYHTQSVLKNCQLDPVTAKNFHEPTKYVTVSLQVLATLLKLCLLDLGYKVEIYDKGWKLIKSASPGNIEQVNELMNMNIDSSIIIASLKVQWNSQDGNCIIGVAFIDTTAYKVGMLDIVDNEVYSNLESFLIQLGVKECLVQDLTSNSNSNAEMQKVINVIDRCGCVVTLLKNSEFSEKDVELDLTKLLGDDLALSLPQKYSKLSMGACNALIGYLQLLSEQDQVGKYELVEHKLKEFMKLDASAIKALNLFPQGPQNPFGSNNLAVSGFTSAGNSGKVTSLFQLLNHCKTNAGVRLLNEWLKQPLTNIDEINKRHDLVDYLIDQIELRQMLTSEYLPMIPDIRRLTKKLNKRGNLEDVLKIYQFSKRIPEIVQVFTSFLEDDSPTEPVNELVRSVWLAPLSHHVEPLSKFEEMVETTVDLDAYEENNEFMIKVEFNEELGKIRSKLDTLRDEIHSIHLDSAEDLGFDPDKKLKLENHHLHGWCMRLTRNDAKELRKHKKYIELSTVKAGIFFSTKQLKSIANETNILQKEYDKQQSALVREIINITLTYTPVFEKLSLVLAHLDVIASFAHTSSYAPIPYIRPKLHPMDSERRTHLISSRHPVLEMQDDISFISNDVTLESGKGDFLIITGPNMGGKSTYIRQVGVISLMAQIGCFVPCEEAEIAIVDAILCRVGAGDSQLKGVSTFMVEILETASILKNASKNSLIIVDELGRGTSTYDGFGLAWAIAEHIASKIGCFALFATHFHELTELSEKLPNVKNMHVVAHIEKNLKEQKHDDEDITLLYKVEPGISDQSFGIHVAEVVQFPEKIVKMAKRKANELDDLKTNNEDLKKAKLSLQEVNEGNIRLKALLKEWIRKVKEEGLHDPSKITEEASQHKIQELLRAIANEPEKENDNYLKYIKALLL
# T1 sequence (Q03834 1-1242 K988A): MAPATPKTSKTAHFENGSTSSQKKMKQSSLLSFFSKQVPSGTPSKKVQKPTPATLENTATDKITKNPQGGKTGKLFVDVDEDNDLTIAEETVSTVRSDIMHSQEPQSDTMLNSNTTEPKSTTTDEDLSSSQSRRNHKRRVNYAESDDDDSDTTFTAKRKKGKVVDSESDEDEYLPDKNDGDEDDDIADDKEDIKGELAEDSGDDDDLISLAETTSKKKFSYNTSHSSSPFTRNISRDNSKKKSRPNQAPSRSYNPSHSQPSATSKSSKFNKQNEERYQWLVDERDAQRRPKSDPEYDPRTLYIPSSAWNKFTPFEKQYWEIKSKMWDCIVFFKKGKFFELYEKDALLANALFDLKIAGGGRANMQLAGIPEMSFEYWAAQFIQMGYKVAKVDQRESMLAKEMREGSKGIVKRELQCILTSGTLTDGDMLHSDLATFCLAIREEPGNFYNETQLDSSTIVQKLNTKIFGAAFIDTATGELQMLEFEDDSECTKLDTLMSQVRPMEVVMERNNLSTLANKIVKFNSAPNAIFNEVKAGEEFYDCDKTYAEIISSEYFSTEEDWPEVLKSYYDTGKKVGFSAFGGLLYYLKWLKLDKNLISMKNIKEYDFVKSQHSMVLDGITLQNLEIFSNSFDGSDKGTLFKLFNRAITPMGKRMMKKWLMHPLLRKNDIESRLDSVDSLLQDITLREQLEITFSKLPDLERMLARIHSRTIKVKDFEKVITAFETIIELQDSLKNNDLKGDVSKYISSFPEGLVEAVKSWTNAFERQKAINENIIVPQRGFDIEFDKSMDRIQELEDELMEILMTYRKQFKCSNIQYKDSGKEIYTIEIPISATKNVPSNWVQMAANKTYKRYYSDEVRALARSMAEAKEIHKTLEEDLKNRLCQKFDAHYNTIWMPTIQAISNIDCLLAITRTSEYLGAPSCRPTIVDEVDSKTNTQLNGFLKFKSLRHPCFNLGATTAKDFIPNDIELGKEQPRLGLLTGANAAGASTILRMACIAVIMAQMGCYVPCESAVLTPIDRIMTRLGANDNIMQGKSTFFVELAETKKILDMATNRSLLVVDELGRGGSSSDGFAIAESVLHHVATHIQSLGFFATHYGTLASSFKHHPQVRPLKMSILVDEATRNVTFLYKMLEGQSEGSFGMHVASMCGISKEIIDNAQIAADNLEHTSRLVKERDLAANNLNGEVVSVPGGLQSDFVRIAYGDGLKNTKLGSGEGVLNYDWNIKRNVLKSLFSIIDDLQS
# Test: UV cross-linking of [γ-32P]ATP, SDS-PAGE, phosphorimaging
# Assay type: binding
# Settings: labelled compound; no Mg2+, EDTA, pH 8, on ice; Msh2 site at 60 μM ATP, Msh6 site at 1 μM ATP
smiles,measurement,value
Nc1ncnc2c1ncn2[C@@H]1O[C@H](COP(=O)(O)OP(=O)(O)OP(=O)(O)O)[C@@H](O)[C@H]1O [ATP],relative ATP binding,Msh2–Msh6(K988A) and Msh2–Msh6(K988R) mutant complexes had partial ATP binding defects at the Msh2 subunit
